The values below come from patent US20250188164A1, “PHARMACEUTICAL COMPOSITION COMPRISING ANTI-CTLA4-ANTI-PD-1 BISPECIFIC ANTIBODY AND CHIAURANIB” (AKESO PHARMACEUTICALS, INC., priority 2022, published 2025).

The subject of the assay is mixed culture of DC, PBMC and A375 cells. The experiment in a line: Lymphocyte-tumor cell mixed reaction system, cytokine secretion by ELISA. Format: cell-based, human. The settings on record: A375 cells treated with 15 μM chiauranib for 48 h, BiAb004(hG1TM) 300 nM. Here is the method: Freshly isolated PBMCs (from healthy donors) were adhered to the wall overnight. Mononuclear cells were collected. GM-CSF (2000 U/mL, from peprotech, Cat. No. 300-03) and IL-4 (2000 U/mL from peprotech, Cat. No. 200-04) were added. Induction was performed after 3 days of culture. For the iDC group, half of the medium was exchanged, and GM-CSF (2000 U/mL) and IL4 (2000 U/mL) were added. For the mDC group, half of the medium was exchanged, and GM-CSF (2000 U/mL), IFN-γ (50 ng/mL, from Sino Biological, Cat. No. 11725-HNAS-100) and LPS (100 ng/mL, from SIGMA, Cat. No. L6529) were added. The cells were cultured in an incubator for 2 days and frozen for later use.
A375 cells (purchased from ATCC, agency: Zhongyuan Ltd., Cat. No. CRL-1619) were digested conventionally, collected by centrifugation, and plated on 10 cm dishes at 2×10^6 cells/dish. Chiauranib (from Chipscreen Biosciences, Lot No. 210604) was added to one of the dishes to a final concentration of 15 μM, and a blank control group was set. The mixture was incubated in an incubator at 37° C. and 5% CO2 for 48 h (medium: DMEM+10% FBS). […] The cells were counted and plated as per DC:PBMC=1:10 in 96-well flat-bottom plates. […] The amounts of secretion of IFN-γ (purchased from Dakewe, Cat. No. 1110202) and IL-2 (purchased from Dakewe, Cat. No. 1110202) were measured by an ELISA kit.
(ELISA stands for enzyme-linked immunosorbent assay.)

Turning to `COc1ccc2c(Oc3ccc4c(C(=O)Nc5ccccc5N)cccc4c3)ccnc2c1` [chiauranib, N-(2-aminophenyl)-6-(7-methoxyquinoline-4-oxy)-1-naphthamide], the “secretion of IFN-γ” value (supernatants day 3 and day 5, FIG. 17) is given as “effectively promote”. Besides, the “secretion of IL-2” value (supernatants day 3 and day 5, FIG. 18) is reported as “effectively promote”.
